Laboratory results: patent US20180116933A1, “ANTI-OXIDATIVE OR ANTI-AGING COMPOSITION CONTAINING 5-ADAMANTAN-1-YL-N-(2,4-DIHYDROXYBENZYL)-2,4-DIMETHOXYBENZAMIDE” (Amorepacific Corporation, priority 2015, published 2018)

How the values were obtained:
[1] = tested on: matrix metalloprotease-1 (MMP-1); assay: MMP-1 assay: UV-induced MMP-1 expression in HS68 human fibroblasts (MMP-1 ELISA kit); assay type: cell-based; conditions: UV-irradiated HS68 cells, 0.1, 0.5, and 1 μM, 48 hours (FIG. 3)
Experimental: In order to confirm the anti-aging effect of the sample, an experiment to see how much 5-adamantan-1-yl-N-(2,4-dihydroxybenzyl)-2,4-dimethoxybenzamide can inhibit the expression of matrix metalloprotease-1 (MMP-1) to be induced by ultraviolet (UV) rays was performed.
Human fibroblasts (HS68 cells, purchased from ATCC (Rockville, Md., USA)) were plated on a well plate at a density of 7.5×10^4 cells/well, then incubated in DMEM (Dulbecco's Modified Eagle's Medium) containing 10% FBS for 24 hours, then washed with PBS (phosphate-buffered saline), then 0.5 ml of PBS was added thereto, and the expression of MMP-1 was induced by irradiating the resultant incubated cells with ultraviolet rays. After changing to Serum-Free DMEM, the resultant was treated with 5-adamantan-1-yl-N-(2,4-dihydroxybenzyl)-2,4-dimethoxybenzamide (referred to as ‘AP736’ in FIG. 3) prepared in Example. The amount of the supernatant obtained after incubation for a certain period of time (48 hours) was measured by using an MMP-1 ELISA kit.
In other words, HS68 cells of human dermal fibroblasts were treated with ultraviolet rays to increase the expression of MMP-1, and the resulting HS68 cells were then treated with each sample to see whether the expression of MMP-1 decreased. The experimental results are illustrated in FIG. 3. […]

[2] = DPPH free radical scavenging evaluation; assay type: biochemical; conditions: 0 to 200 μg/ml, DPPH 0.2 mM in methanol, 30 minutes, absorbance 517 nm (FIG. 2)
Experimental: The DPPH free radical scavenging evaluation method was performed as follows.
In 5-adamantan-1-yl-N-(2,4-dihydroxybenzyl)-2,4-dimethoxybenzamide (referred to as ‘AP736’ in FIG. 2) prepared in Example, a reaction product adjusted to a concentration of from 0 to 200 μg/ml and a methanol solution of DPPH (0.2 mM) were incubated for 30 minutes. The absorbance of the solution was measured at 517 nm. The scavenging ability was expressed by the value obtained by comparing the absorbance of the solution to that (100%) of the control DPPH solution in % as presented in the following Mathematical Formula 1.

Raw 264.7 cells = assay: Cytotoxicity test (MTT method) in Raw 264.7 cells; assay type: cell-based
Experimental: RAW264.7 cells (obtained from ATCC (Rockville, Md., USA) as a murine macrophage cell line) were incubated in RPMI 1640 medium supplemented with FBS (10% heat-inactivated fetal bovine serum; Gibco, Grand Island, N.Y., USA), glutamine, antibiotics (penicillin and streptomycin) at 37° C. and 5% CO2.
In all experiments, cells were detached with a cell scraper. When cells were incubated at a concentration of 2×10^6 cells/mL in the experiment, the percentage of dead cells was 1% or less (confirmed by a trypan blue dye exclusion method).
In order to determine the appropriate concentration of extract treatment for anti-inflammatory evaluation of 5-adamantan-1-yl-N-(2,4-dihydroxybenzyl)-2,4-dimethoxybenzamide, the cytotoxicity of 5-adamantan-1-yl-N-(2,4-dihydroxybenzyl)-2,4-dimethoxybenzamide at each concentration was evaluated in the cells used in the experiments.
Raw 264.7 cells in the subculture were plated on a well plate at a density of […]. After 18 hours of cell incubation, the cells were subjected to a sample treatment so that the concentration of 5-adamantan-1-yl-N-(2,4-dihydroxybenzyl)-2,4-dimethoxybenzamide (referred to as ‘AP736’ in FIG. 1) was from 0 to 30 μM. The cells were incubated for 8 hours or 24 hours in an incubator. The cytotoxic effect was evaluated by the conventional MTT method. Before the last 3 hours of incubation, 10 μL of MTT {3-[4,5-dimethylthiazol-2-yl]-2,5-diphenyltetrazolium bromide} solution (10 mg/mL in phosphate-buffered saline, pH 7.4) was added to each well. To each well, 15% SDS (sodium dodecyl sulfate) was added to terminate the reaction, and the formazan crystal was then dissolved therein. Thereafter, the absorbance at 570 nm was measured on a microplate reader.

SMILES: COc1cc(OC)c(C23CC4CC(CC(C4)C2)C3)cc1C(=O)NCc1ccc(O)cc1O [AP736, 5-adamantan-1-yl-N-(2,4-dihydroxybenzyl)-2,4-dimethoxybenzamide]
- expression of MMP-1 [1]: tended to decrease
- percentage of DPPH radical scavenging activity [2]: increases
- cell viability (Raw 264.7 cells; 10 μM, 8 hours): about 100%
- cell viability (Raw 264.7 cells; 10 μM, 24 hours): about 100%
- cell viability (Raw 264.7 cells; 20 μM, 8 hours): about 100%
- cell viability (Raw 264.7 cells; 20 μM, 24 hours): about 100%
- cell viability (Raw 264.7 cells; 30 μM, 24 hours): about 80%
